# Assay results: patent publication US8383582B2, “Inhibitor against forming biofilm comprising κ-casein macropeptide” (Industry Foundation of Chonnam National University, priority 2010, dated 2013)
# System: L. monocytogenes
# Test: Biofilm formation on PVC microplates under static condition (crystal violet, A595)
# Format: cell-based, Listeria monocytogenes
# Conditions: for inhibitory rate of biofilm formation (group): 24 h incubation
# Excerpt: The quantification of biofilm production on plastic microtiter plates and glass tubes was based on a previously described method (Djordjevic et al., 2002). As abiotic surfaces for biofilm formation, 96-well polyvinyl chloride (PVC) microplates (BD Biosciences, San Jose, Calif., USA) and Pyrex glass tube (10 mm by 20 mm) were used. Overnight cultures of 12 strains of L. monocytogenes were twice washed with PBS and inoculated at 10^6 CFU/ml in modified Welshimer's broth (MWB) supplemented different concentrations of CMP (Davisco Foods International, Inc., MN, USA; 0.1, 0.2, and 0.4 mg/ml or 1.0, 2.0, and 4.0 mg/ml). After incubation at 30° C. without agitation for 24 and 48 h, the microplates were twice rinsed thoroughly with double-distilled water, and a 0.1% (w/v) solution of crystal violet (CV) was added to stain the attached cells. Following staining at room temperature for 30 min, CV was removed and the wells were rinsed with double-distilled water thrice. After the microplates were air dried, the dye was solubilized with 95% ethanol solution. The absorbance at 595 nm of the solubilized dye was subsequently determined by using an enzyme-linked immunosorbent assay (ELISA) plate reader (Molecular Devices, Sunnyvale, Calif., USA). An equal volume of 95% ethanol was added in the control wells.
# All experiments were conducted at least in triplicate. The effects of each treatment were analyzed by analysis of variance (ANOVA) followed by Duncan's test with the SAS software package (version 9.1; SAS, Inc., Cary, N.C., USA). The level of significance was defined at p<0.05.
substance,measurement,setting,value
κ-casein macropeptide [CMP],inhibitory effects on biofilm formation at low concentrations,"0.1, 0.2, or 0.4 mg/ml tested, effect at 0.4 mg/ml",profound inhibitory effects
same,differences in biofilm inhibition among the tested concentrations,"1, 2, or 4 mg/ml of CMP",no significant differences
same,decrease of L. monocytogenes biofilms compared to the control,"PVC microplates, 1, 2, or 4 mg/ml of CMP",< 90%
same,inhibitory rate of biofilm formation (group),"strain 17, PVC microplates",high inhibition (90%≦inhibition rate represent high inhibition)
same,inhibitory rate of biofilm formation (group),"strain 18, PVC microplates",high inhibition (90%≦inhibition rate represent high inhibition)
same,inhibitory rate of biofilm formation (group),"strain 70, PVC microplates",low inhibition (inhibition rate<87% represent low inhibition)
same,inhibitory rate of biofilm formation (group),"strain 106, PVC microplates",medium inhibition (87%≦inhibition rate<90% represent medium inhibition)
same,inhibitory rate of biofilm formation (group),"strain 303, PVC microplates",low inhibition (inhibition rate<87% represent low inhibition)
same,inhibitory rate of biofilm formation (group),"strain 3982, PVC microplates",high inhibition (90%≦inhibition rate represent high inhibition)
same,inhibitory rate of biofilm formation (group),"strain 3990, PVC microplates",high inhibition (90%≦inhibition rate represent high inhibition)
same,inhibitory rate of biofilm formation (group),"strain Brie-1, PVC microplates",high inhibition (90%≦inhibition rate represent high inhibition)
same,inhibitory rate of biofilm formation (group),"strain LCDC, PVC microplates",low inhibition (inhibition rate<87% represent low inhibition)
same,inhibitory rate of biofilm formation (group),"strain Scott A, PVC microplates",low inhibition (inhibition rate<87% represent low inhibition)
same,inhibitory rate of biofilm formation (group),"strain V7, PVC microplates",medium inhibition (87%≦inhibition rate<90% represent medium inhibition)
same,inhibitory rate of biofilm formation (group),"strain V37, PVC microplates",medium inhibition (87%≦inhibition rate<90% represent medium inhibition)
